Test results reported in patent US10654853B2, “Spiro-condensed pyrrolidine derivatives as deubiquitylating enzymes (DUB) inhibitors” (MISSION THERAPEUTICS LIMITED, priority 2016, dated 2020).

What follows are compounds tested against Cezanne 1 (Homo sapiens (Human), UniProt Q6GQQ9) (assay: Cezanne 1 biochemical IC50 assay (fluorescence polarisation, TAMRA labelled peptide linked to ubiquitin)). Settings: not given.
Procedure: The Cezanne 1 construct was PCR amplified and cloned into a pFLAG-CMV-6c vector (Sigma-Aldrich) with an N-terminal FLAG tag. HEK293T cells were transfected with FLAG-Cezanne 1 using TransIT-LT1 transfection reagent (Mirus) according to the manufacturer's instructions. Cells were harvested 48 hours after transfection. […] The resin was washed two times with low salt buffer and one time with high salt buffer (20 mM Tris, pH 7.5, 500 mM NaCl, 0.5 mM EDTA, 5 mM beta-mercaptoethanol, protease inhibitors (complete mini, Roche) and phosphatase inhibitors (PhosSTOP mini, Roche). To elute the bound Cezanne 1, elution buffer (10 mM Tris, pH 7.5, 150 mM NaCl, 0.5 mM EDTA, 10% glycerol, 0.5% NP40, 5 mM beta-mercaptoethanol, 0.15 mg/ml 3× FLAG peptide (Sigma-Aldrich)) was added to the resin and incubated at 4° C. for 2.5 hours while rotating. The resin was centrifuged at 4000 rpm for 30 seconds, and the supernatant containing purified FLAG-Cezanne 1 was removed and stored at −80° C. […] Dilution plates were prepared at 21 times the final concentration (2100 μM for a final concentration of 100 μM) in 50% DMSO in a 96-well polypropylene V-bottom plate (Greiner #651201). […] Reactions were performed in duplicate in black 384 well plates (small volume, Greiner 784076) in a final reaction volume of 21 μl. Either 1 μl of 50% DMSO or diluted compound was added to the plate. Cezanne 1 was diluted in reaction buffer (40 mM Tris, pH 7.5, 0.005% Tween 20, 0.5 mg/ml BSA, 5 mM—beta-mercaptoethanol) to the equivalent of 0.005 μl/well and 10 μl of diluted Cezanne 1 was added to the compound. Enzyme and compound were incubated for 30 min at room temp. Reactions were initiated by the addition of 50 nM of TAMRA labelled peptide linked to ubiquitin via an iso-peptide bond as fluorescence polarisation substrate. Reactions were read immediately after addition of substrate and following a 2 hr incubation at room temperature. Readings were performed on a Pherastar Plus (BMG Labtech). λ Excitation 540 nm; λ Emission 590 nm.

Cezanne 1, sequence (Q6GQQ9 whole entry): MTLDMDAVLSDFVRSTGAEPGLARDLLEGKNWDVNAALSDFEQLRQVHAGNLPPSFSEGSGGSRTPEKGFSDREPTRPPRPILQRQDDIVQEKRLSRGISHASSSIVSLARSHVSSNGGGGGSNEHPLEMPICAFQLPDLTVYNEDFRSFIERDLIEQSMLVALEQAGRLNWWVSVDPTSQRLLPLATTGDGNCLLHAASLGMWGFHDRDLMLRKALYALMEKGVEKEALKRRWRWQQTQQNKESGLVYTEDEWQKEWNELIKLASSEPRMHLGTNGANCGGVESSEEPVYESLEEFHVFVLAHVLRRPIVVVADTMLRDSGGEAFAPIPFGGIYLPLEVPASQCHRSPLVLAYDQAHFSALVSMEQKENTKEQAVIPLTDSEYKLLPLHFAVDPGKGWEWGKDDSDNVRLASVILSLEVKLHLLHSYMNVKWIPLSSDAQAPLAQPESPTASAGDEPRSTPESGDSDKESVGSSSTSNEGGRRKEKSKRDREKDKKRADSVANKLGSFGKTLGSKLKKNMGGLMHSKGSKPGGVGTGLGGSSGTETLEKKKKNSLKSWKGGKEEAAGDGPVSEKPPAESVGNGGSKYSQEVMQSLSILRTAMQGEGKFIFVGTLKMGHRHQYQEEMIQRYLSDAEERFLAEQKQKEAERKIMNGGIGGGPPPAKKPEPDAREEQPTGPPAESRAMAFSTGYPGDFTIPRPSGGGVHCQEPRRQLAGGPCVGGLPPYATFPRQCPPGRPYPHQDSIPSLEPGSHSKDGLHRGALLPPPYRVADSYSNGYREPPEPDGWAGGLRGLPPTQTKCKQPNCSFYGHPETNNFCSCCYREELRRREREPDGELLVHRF

| Structure (SMILES) | IC50 |
| --- | --- |
| N#CN1CCC2(Cc3ccc(Cl)cc3NC2=O)C1 (stereo not drawn) [Example 2, 7′-Chloro-2′-oxo-1′,4′-dihydro-2′H-spiro[pyrrolidine-3,3′-quinoline]-1-carbonitrile] | 1000 to 10000 nM |
| COc1ccc2c(c1)NC(=O)C1(CCN(C#N)C1)C2 (stereo not drawn) [Example 3, 7′-Methoxy-2′-oxo-1′,4′-dihydro-2′H-spiro[pyrrolidine-3,3′-quinoline]-1-carbonitrile] | 1000 to 10000 nM |
| N#CN1CCC2(Cc3ccc(-c4ccc(-c5ccccc5)cc4)cc3NC2=O)C1 (stereo not drawn) [Example 6, 7′-([1,1′-Biphenyl]-4-yl)-2′-oxo-1′,4′-dihydro-2′H-spiro[pyrrolidine-3,3′-quinoline]-1-carbonitrile] | 1000 to 10000 nM |

Same assay, conditions: Cezanne 1 biochemical IC50 assay; 30 min pre-incubation, read after 2 hr at room temperature; read-out: IC50 range

| IC50 | Structure (SMILES) |
| --- | --- |
| > 10000 nM | CC1CC2(CCN(C#N)C2)C(=O)N1 (single isomer, unassigned) [Example 82, 8-Methyl-6-oxo-2,7-diazaspiro[4.4]nonane-2-carbonitrile] |
| > 10000 nM | CC1CC2(CCN(C#N)C2)C(=O)N1 (single isomer, unassigned) [Example 83, 8-Methyl-6-oxo-2,7-diazaspiro[4.4]nonane-2-carbonitrile] |
| > 10000 nM | N#CN1CCC2(CC(c3ccccc3)NC2=O)C1 (single isomer, unassigned) [Example 84, 6-Oxo-8-phenyl-2,7-diazaspiro[4.4]nonane-2-carbonitrile] |
| 1000 to 10000 nM | N#CN1CCC2(Cc3ccccc3NC2=O)C1 (stereo not drawn) [Example 1, 2′-Oxo-1′,4′-dihydro-2′H-spiro[pyrrolidine-3,3′-quinoline]-1-carbonitrile] |
| 1000 to 10000 nM | N#CN1CCC2(Cc3ccc(-c4ccccc4)cc3NC2=O)C1 (stereo not drawn) [Example 4, 2′-Oxo-7′-phenyl-1′,4′-dihydro-2′H-spiro[pyrrolidine-3,3′-quinoline]-1-carbonitrile] |
| 1000 to 10000 nM | COc1ccc(C(C)C)cc1-c1ccc2c(c1)NC(=O)C1(CCN(C#N)C1)C2 (stereo not drawn) [Example 5, 7′-(5-Isopropyl-2-methoxyphenyl)-2′-oxo-1′,4′-dihydro-2′H-spiro[pyrrolidine-3,3′-quinoline]-1-carbonitrile] |
| 1000 to 10000 nM | Cn1cc(-c2ccc3c(c2)NC(=O)C2(CCN(C#N)C2)C3)cn1 (stereo not drawn) [Example 12, 7′-(1-Methyl-1H-pyrazol-4-yl)-2′-oxo-1′,4′-dihydro-2′H-spiro[pyrrolidine-3,3′-quinoline]-1-carbonitrile] |
| 1000 to 10000 nM | N#Cc1ccc(-c2ccc3c(c2)NC(=O)C2(CCN(C#N)C2)C3)cc1 (stereo not drawn) [Example 13, 7′-(4-Cyanophenyl)-2′-oxo-1′,4′-dihydro-2′H-spiro[pyrrolidine-3,3′-quinoline]-1-carbonitrile] |
| 1000 to 10000 nM | CNC(=O)c1ccc(-c2ccc3c(c2)NC(=O)C2(CCN(C#N)C2)C3)cn1 (stereo not drawn) [Example 15, 5-(1-Cyano-2′-oxo-1′,4′-dihydro-2′H-spiro[pyrrolidine-3,3′-quinolin]-7′-yl)-N-methylpicolinamide] |
| 1000 to 10000 nM | CNC(=O)c1ccc(-c2ccc3c(c2)NC(=O)C2(CCN(C#N)C2)C3)cc1 (stereo not drawn) [Example 17, 4-(1-Cyano-2′-oxo-1′,4′-dihydro-2′H-spiro[pyrrolidine-3,3′-quinolin]-7′-yl)-N-methylbenzamide] |
| 100 to 1000 nM | CC(C)Oc1ccc(F)cc1-c1ccc2c(c1)NC(=O)C1(CCN(C#N)C1)C2 (stereo not drawn) [Example 21, 7′-(5-Fluoro-2-isopropoxyphenyl)-2′-oxo-1′,4′-dihydro-2′H-spiro[pyrrolidine-3,3′-quinoline]-1-carbonitrile] |
| 100 to 1000 nM | CN1CCN(C(=O)c2ccc(-c3ccc4c(c3)NC(=O)C3(CCN(C#N)C3)C4)cc2)CC1 (stereo not drawn) [Example 23, 7′-(4-(4-Methylpiperazine-1-carbonyl)phenyl)-2′-oxo-1′,4′-dihydro-2′H-spiro[pyrrolidine-3,3′-quinoline]-1-carbonitrile] |
| < 100 nM | Cn1ncc2cc(-c3ccc4c(c3)NC(=O)C3(CCN(C#N)C3)C4)ccc21 (stereo not drawn) [Example 24, 7′-(1-Methyl-1H-indazol-5-yl)-2′-oxo-1′,4′-dihydro-2′H-spiro[pyrrolidine-3,3′-quinoline]-1-carbonitrile] |
| 100 to 1000 nM | N#CN1CCC2(Cc3ccc(-c4cccc(NS(=O)(=O)C5CC5)c4)cc3NC2=O)C1 (stereo not drawn) [Example 26, N-(3-(1-Cyano-2′-oxo-1′,4′-dihydro-2′H-spiro[pyrrolidine-3,3′-quinolin]-7′-yl)phenyl)cyclopropanesulfonamide] |
| 100 to 1000 nM | N#CN1CCC2(Cc3ccc(-c4cncnc4)cc3NC2=O)C1 (stereo not drawn) [Example 28, 2′-Oxo-7′-(pyrimidin-5-yl)-1′,4′-dihydro-2′H-spiro[pyrrolidine-3,3′-quinoline]-1-carbonitrile] |
| 1000 to 10000 nM | CC(=O)Nc1cccc(-c2ccc3c(c2)NC(=O)C2(CCN(C#N)C2)C3)c1 (stereo not drawn) [Example 29, N-(3-(1-Cyano-2′-oxo-1′,4′-dihydro-2′H-spiro[pyrrolidine-3,3′-quinolin]-7′-yl)phenyl)acetamide] |
| 1000 to 10000 nM | Cc1n[nH]c(C)c1-c1ccc2c(c1)NC(=O)C1(CCN(C#N)C1)C2 (stereo not drawn) [Example 33, 7′-(3,5-Dimethyl-1H-pyrazol-4-yl)-2′-oxo-1′,4′-dihydro-2′H-spiro[pyrrolidine-3,3′-quinoline]-1-carbonitrile] |
| 100 to 1000 nM | CC(=O)Nc1ccccc1-c1ccc2c(c1)NC(=O)C1(CCN(C#N)C1)C2 (stereo not drawn) [Example 36, N-(2-(1-Cyano-2′-oxo-1′,4′-dihydro-2′H-spiro[pyrrolidine-3,3′-quinolin]-7′-yl)phenyl)acetamide] |
| 1000 to 10000 nM | N#CN1CCC2(Cc3ccc(-c4ccc(C(=O)N5CCOCC5)cc4)cc3NC2=O)C1 (stereo not drawn) [Example 37, 7′-(4-(Morpholine-4-carbonyl)phenyl)-2′-oxo-1′,4′-dihydro-2′H-spiro[pyrrolidine-3,3′-quinoline]-1-carbonitrile] |

Further lines, the compound ahead of its results:

| Structure (SMILES) | IC50 |
| --- | --- |
| N#CN1CCC2(Cc3ccc(-c4ccc(Oc5ccccc5)cc4)cc3NC2=O)C1 (stereo not drawn) [Example 11, 2′-Oxo-7′-(4-phenoxyphenyl)-1′,4′-dihydro-2′H-spiro[pyrrolidine-3,3′-quinoline]-1-carbonitrile] | 1000 to 10000 nM |
| N#CN1CCC2(Cc3ccc(-c4cc(OC(F)(F)F)ccc4Cl)cc3NC2=O)C1 (stereo not drawn) [Example 14, 7′-(2-Chloro-5-(trifluoromethoxy)phenyl)-2′-oxo-1′,4′-dihydro-2′H-spiro[pyrrolidine-3,3′-quinoline]-1-carbonitrile] | 1000 to 10000 nM |
| CN1CCN(c2ccc(-c3ccc4c(c3)NC(=O)C3(CCN(C#N)C3)C4)cc2)CC1 (stereo not drawn) [Example 19, 7′-(4-(4-Methylpiperazin-1-yl)phenyl)-2′-oxo-1′,4′-dihydro-2′H-spiro[pyrrolidine-3,3′-quinoline]-1-carbonitrile] | 100 to 1000 nM |
| Cc1ccc2[nH]ncc2c1-c1ccc2c(c1)NC(=O)C1(CCN(C#N)C1)C2 (stereo not drawn) [Example 25, 7′-(5-Methyl-1H-indazol-4-yl)-2′-oxo-1′,4′-dihydro-2′H-spiro[pyrrolidine-3,3′-quinoline]-1-carbonitrile] | 100 to 1000 nM |
| Cc1n[nH]cc1-c1ccc2c(c1)NC(=O)C1(CCN(C#N)C1)C2 (stereo not drawn) [Example 27, 7′-(3-Methyl-1H-pyrazol-4-yl)-2′-oxo-1′,4′-dihydro-2′H-spiro[pyrrolidine-3,3′-quinoline]-1-carbonitrile] | 1000 to 10000 nM |
| CN(C)C(=O)c1cccc(-c2ccc3c(c2)NC(=O)C2(CCN(C#N)C2)C3)c1 (stereo not drawn) [Example 30, 3-(1-Cyano-2′-oxo-1′,4′-dihydro-2′H-spiro[pyrrolidine-3,3′-quinolin]-7′-yl)-N,N-dimethylbenzamide] | 100 to 1000 nM |
| CC(=O)Nc1ccc(-c2ccc3c(c2)NC(=O)C2(CCN(C#N)C2)C3)cc1 (stereo not drawn) [Example 31, N-(4-(1-Cyano-2′-oxo-1′,4′-dihydro-2′H-spiro[pyrrolidine-3,3′-quinolin]-7′-yl)phenyl)acetamide] | 1000 to 10000 nM |
| N#CN1CCC2(Cc3ccc(-c4ccc(S(=O)(=O)N5CCOCC5)cc4)cc3NC2=O)C1 (stereo not drawn) [Example 32, 7′-(4-(Morpholinosulfonyl)phenyl)-2′-oxo-1′,4′-dihydro-2′H-spiro[pyrrolidine-3,3′-quinoline]-1-carbonitrile] | 1000 to 10000 nM |
| Cc1cc(-c2ccc3c(c2)NC(=O)C2(CCN(C#N)C2)C3)ccn1 (stereo not drawn) [Example 34, 7′-(2-Methylpyridin-4-yl)-2′-oxo-1′,4′-dihydro-2′H-spiro[pyrrolidine-3,3′-quinoline]-1-carbonitrile] | 1000 to 10000 nM |
| N#CN1CCC2(Cc3ccc(-c4cccc(N5CCCCC5)c4)cc3NC2=O)C1 (stereo not drawn) [Example 35, 2′-Oxo-7′-(3-(piperidin-1-yl)phenyl)-1′,4′-dihydro-2′H-spiro[pyrrolidine-3,3′-quinoline]-1-carbonitrile] | 1000 to 10000 nM |
| N#CN1CCC2(Cc3ccc(-c4cccc(S(=O)(=O)N5CCOCC5)c4)cc3NC2=O)C1 (stereo not drawn) [Example 38, 7′-(3-(Morpholinosulfonyl)phenyl)-2′-oxo-1′,4′-dihydro-2′H-spiro[pyrrolidine-3,3′-quinoline]-1-carbonitrile] | 1000 to 10000 nM |
